“And” between values parts separate entries of the source, which are not always exact repeats. Equal entries are not always repeated. Where two headings read alike, the source gives them in different places.
How the values were obtained:
[1] = system: pentylenetetrazole-induced generalised seizures; conditions: data of EP3160457; cited from earlier work
[2] = system: Maximal Electroshock generalised seizures; conditions: data of EP3160457 / WO 2020/104796; cited from earlier work
[3] = range of toxicology screens, WO 2020/104796; cited from earlier work
[4] = system: tonic hind limb extensor convulsions induced by electroshock (generalised seizure); test: mini-MEST (maximal electroshock seizure threshold) test in the mouse; conditions: for % change from vehicle (CC50) / CC50 +/- SEM (current producing tonic hind limb extension in 50% of animals): mouse, i.p., 30 min post dose, diazepam 2.5 mg/kg, Compound I 100 mg/kg, Compound II 150 mg/kg; for CC50 +/- SEM (current producing tonic hind limb extension in 50% of animals): N=6
Description: The maximal electroshock seizure threshold (MEST) test is widely utilized preclinically to evaluate pro- or anti-convulsant properties of test compounds (Loscher et al., 1991).
In the MEST test the ability of a drug to alter the seizure threshold current required to induce hind limb tonic extensor convulsions is measured according to an “up and down” method of shock titration (Kimball et al., 1957). An increase in seizure threshold is indicative of anti-convulsant effect.
The ability of a test compound to alter the stimulus intensity, expressed as current (mA), required to induce the presence of tonic hind limb extensor convulsions, is assessed in the MEST.
Naïve mice were acclimatised to the procedure room in their home cages for up to 7 days, with food and water available ad libitum.
All animals were weighed at the beginning of the study and randomly assigned to treatment groups based on a mean distribution of body weight across groups.
The first animal within a treatment group was given a shock at the expected or estimated CC50 current. For subsequent animals, the current was lowered or raised depending on the convulsions outcome from the preceding animal in log scale intervals.
Data generated from each treatment group were used to calculate the CC50±SEM values for the treatment group.
Vehicle: (5% ethanol, 10% solutol in 85% Saline) was prepared as follows: 1 mL of ethanol, 2 mL of solutol were warmed to 60° ° C., in 17 mL of saline (1:2:17).
The test compounds, described herein as Compound I and Compound II, are as shown as Formula I and Formula II respectively. Test compounds were administered at 100 mg/kg (i.p.) for Compound I and 150 mg/kg (i.p.) for Compound II in a 1:2:17 ethanol:solutol:0.9% saline formulation.
The data for each treatment group were recorded as the number of +'s and 0's at each current level employed and this information is then used to calculate the CC50 value (current required for 50% of the animals to show seizure behaviour)±standard error.
Test compound effects were also calculated as percentage change in CC50 from the vehicle control group.
Significant difference between drug-treated animals and controls were assessed according to Litchfield and Wilcoxon (1949).

inflammation = conditions: WO 01/95899; cited from earlier work
[5] = Bioanalysis of plasma and brain concentrations by UPLC-MS/MS; type: in vivo, mice; conditions: mouse, i.p., 30 min post-dose, Compound I 100 mg/kg, Compound II 150 mg/kg; for Brain concentration / Brain concentration at 30 min: Location Brain; for Plasma Conc. (individual animal) / concentration at 30 min: Location Plasma; for Brain concentration at 30 min / concentration at 30 min: in vivo
Description: Each animal was humanely killed immediately after production of a convulsion by destruction of the brain from striking the cranium, followed by the confirmation of permanent cessation of the circulation from decapitation under The Humane Killing of Animals under Schedule 1 to the Animals (Scientific Procedures) Act 1986. Terminal blood and brain collection were performed following decapitation.
Blood was collected in Lithium-heparin tubes and centrifuged at 4 °C for 10 minutes at 1500× g. The resulting plasma was removed (>100 μL) and split into 2 aliquots of 0.5 mL Eppendorf tubes containing 10 μL of ascorbic acid (100 mg/mL) for stabilisation. Brains were removed, washed in saline and halved. Each half was placed into separate 2 mL screw cap cryovials, weighed and frozen on cardice.
Bioanalysis experiments were carried out to determine the quantitative measurement of Compound I and Compound II in plasma and brain.
Six mice were dosed with Compound I at 100 mg/kg and another six with Compound II at 150 mg/kg via intraperitoneal (i.p) injection. Sample analysis was performed 30 min post-dose using a sample volume of 40 μL. Following addition of internal standard (in acetonitrile) and Isopropanol samples were protein precipitated by addition of acetonitrile. Samples were centrifuged and supernatant transferred to a clean 96-well plate (with addition of Tween to minimise non-specific binding to plate materials), evaporated to dryness then reconstituted in suitable solvent. The extracts quantified by ultraperformance liquid chromatography-tandem mass spectrometry (UPLC-MS/MS).

[6] = read-out: Mean Plasma Conc., Location Brain
[7] = read-out: Plasma Conc., Location Brain (individual animal)
[8] = read-out: Plasma Conc. (individual animal)

SMILES | anticonvulsant effect in PTZ model [1] | anticonvulsant effect in MES model [2] | % change from vehicle (CC50) [4] | CC50 +/- SEM (current producing tonic hind limb extension in 50% of animals) [4] | Brain concentration [5] | Plasma Conc. (individual animal) [5] | Brain concentration at 30 min [5, 6] | Brain concentration at 30 min [5, 7] | concentration at 30 min ([5]; read-out: Mean Plasma Conc.) | concentration at 30 min [5, 8] | further results
C=C(C)[C@@H]1CCC(CO)=C[C@H]1c1c(O)cc(CCC)cc1O [Compound 7-OH-CBDV, 7-hydroxy-cannabidivarin] | anticonvulsant effects | anticonvulsant effects |  |  |  |  |  |  |  |  | 
C=C(C)[C@@H]1CCC(C)=C[C@H]1c1c(O)cc(CCCC)cc1O [CBD-C4, Cannabidiol-C4] |  | Therapeutic efficacy was shown |  |  |  |  |  |  |  |  | toxicology [3]: acceptable toxicology
CN1C(=O)CN=C(c2ccccc2)c2cc(Cl)ccc21 [Diazepam, diazepam, reference compound] |  |  | 291% |  |  |  |  |  |  |  | 
C=C(C)[C@@H]1CCC(CO)=C[C@H]1c1c(O)cc(CCCCC)cc1O [Compound 7-OH-CBD, 7-hydroxy-cannabidiol] | anticonvulsant effects | anticonvulsant effects |  |  |  |  |  |  |  |  | effect in model of inflammation (inflammation): found to be effective
C=C(C)[C@@H]1CCC(C(=O)O)=C[C@H]1c1c(O)cc(CCCC)cc1O [Compound II, (1R,6R)-4′-butyl-2′,6′-dihydroxy-6-(prop-1-en-2-yl)-1,4,5,6-tetrahydro-[1,1′-biphenyl]-3-carboxylic acid] |  |  | <72% | <43 mA | 22.356 µM and 22.956 µM and 15.408 µM and 23.332 µM and 19.363 µM | 856.643 µM and 1008.984 µM and 1144.841 µM and 1209.706 µM and 1141.405 µM | 19.8 µM | 15.7 µM | 1050 µM | 960 µM | 
C=C(C)[C@@H]1CCC(CO)=C[C@H]1c1c(O)cc(CCCC)cc1O [Compound I, (1′R,2′R)-4-butyl-5′-(hydroxymethyl)-2′-(prop-1-en-2-yl)-1′,2′,3′,4′-tetrahydro-[1,1′-biphenyl]-2,6-diol] |  |  |  | >131 mA | 122.248 µM and 113.886 µM and 107.349 µM and 125.595 µM and 129.784 µM | 252.278 µM and 248.66 µM and 242.732 µM | 122 µM | 131 µM | 251 µM | 264 µM | occurrence of tonic hindlimb convulsions in treatment group ([4]; Compound I 100 mg/kg i.p., 30 min, 6 animals): did not have any convulsions
